# Measurements as given in the PolyMetriX glass transition set.
# ± gives the standard deviation of the reports.
row,SMILES,glass transition temperature [°C]
1,*c1ccc2oc(-c3ccc(C(c4ccc(-c5nc6cc(C(*)(c7ccccc7)C(F)(F)F)ccc6o5)cc4)(C(F)(F)F)C(F)(F)F)cc3)nc2c1 (repeat unit),334.00
2,*O[Si](C)(C)CC(C)(C)COC(=O)c1cccc(C(=O)OCC(C)(C)C[Si](*)(C)C)c1 (repeat unit),-52.00
3,*c1ccc(Oc2ccc(C(=O)c3cccc(C(=O)c4ccc(Oc5ccc(N6C(=O)c7ccc(Oc8ccc(Oc9ccc(Oc%10ccc%11c(c%10)C(=O)N(*)C%11=O)cc9)cc8)cc7C6=O)cc5)cc4)c3)cc2)cc1 (repeat unit),192.00
4,*c1cccc(N2C(=O)c3ccc(-c4ccc5c(c4)C(=O)N(*)C5=O)cc3C2=O)c1 (repeat unit),333.2 ± 39
5,*COc1ccc(C(C)(C)c2ccc(Oc3ccc(*)n3-c3ccc(C#N)cc3)cc2)cc1 (repeat unit),73.13
6,*C(=O)c1ccc2ncc(-c3ccc(-c4cnc5ccc(*)cc5n4)cc3)nc2c1 (repeat unit),318.00
7,*c1ccc2c(c1)C(=O)N(c1ccc(C3(c4ccc(N5C(=O)c6ccc(C(*)(C(F)(F)F)C(F)(F)F)cc6C5=O)cc4)c4ccccc4-c4ccccc43)cc1)C2=O (repeat unit),370.00
8,*CC(*)c1cccc(Br)c1 (repeat unit),102.00
9,*CCN(CCOC(=O)Nc1ccc(C)c(NC(=O)O*)c1)c1ccc(/N=N/c2ccc(B(c3c(C)cc(C)cc3C)c3c(C)cc(C)cc3C)cc2)cc1 (repeat unit),159.00
10,*CC(C)(C)C1C(=O)N(c2c(C)cccc2C)C(=O)C1* (repeat unit),237.00
11,*Oc1ccc2c(c1)C(C)(c1ccc(OC(=O)c3cccc(C(*)=O)c3)cc1)CC2(C)C (repeat unit),230.50
12,*c1ccc(Oc2ccc(Oc3ccc(Oc4ccc(-c5nc6ccc(-c7ccc8nc(*)c(-c9ccccc9)nc8c7)cc6nc5-c5ccccc5)cc4)cc3)cc2)cc1 (repeat unit),263.00
13,*Oc1ccc(C2(c3ccc(OC(=O)CCC(*)=O)cc3)c3cc(N(C)C)ccc3-c3ccc([N+](=O)[O-])cc32)cc1 (repeat unit),215.00
14,*CCCCCC(*)CCCCCCCC (repeat unit),-72.00
15,*O[Si](*)(C)CCC(F)(F)F (repeat unit),-69.00
16,*c1ccc2c(c1)C(=O)N(c1ccc(OCCOCCOc3ccc(N4C(=O)c5ccc(C(*)(C(F)(F)F)C(F)(F)F)cc5C4=O)cc3)cc1)C2=O (repeat unit),187.50
17,*c1ccc2c(c1)C(=O)N(c1ccc(Sc3ccc(Oc4ccc(Sc5ccc(N6C(=O)c7ccc(C(*)(C(F)(F)F)C(F)(F)F)cc7C6=O)cc5)cc4)cc3)cc1)C2=O (repeat unit),242.00
18,*Oc1cccc(Oc2ccc(C(=O)c3ccc(P(=O)(c4ccccc4)c4ccc(C(=O)c5ccc(*)cc5)cc4)cc3)cc2)c1 (repeat unit),201.00
19,*c1ccc(Oc2ccc(N3C(=O)c4ccc(-c5cccc6c5C(=O)N(*)C6=O)cc4C3=O)cc2)cc1 (repeat unit),320.00
20,*c1ccc2c(c1)C(=O)N(c1cccc(C(=O)Nc3ccc(Oc4ccc(NC(=O)c5cccc(N6C(=O)c7ccc(C(*)(C(F)(F)F)C(F)(F)F)cc7C6=O)c5)cc4)cc3)c1)C2=O (repeat unit),298.00
21,*CC(*)C(=O)OC(Cl)C(Cl)(Cl)Cl (repeat unit),70.50
22,*c1cccc(N2C(=O)c3ccc(Oc4ccc5c(c4)C4(CC(C)(C)c6ccc(Oc7ccc8c(c7)C(=O)N(*)C8=O)cc64)CC5(C)C)cc3C2=O)c1 (repeat unit),253.00
23,*c1cc(-c2sc(-c3cc(CCCCCCCCCCCCCC)c(*)s3)cc2CCCCCCCCCCCCCC)c2cccccc1-2 (repeat unit),-10.00
24,*Oc1ccc(S(=O)(=O)c2ccc(Oc3ccc(NC(=O)c4cccc(C(=O)Nc5ccc(*)cc5)c4)cc3)cc2)cc1 (repeat unit),260.00
25,*NC(CCC(=O)OCC)C(*)=O (repeat unit),0.00
26,*C1CC2CC1C(*)C2CCCCCC (repeat unit),252.00
27,*CC(*)C(=O)Oc1ccc(Cl)cc1Cl (repeat unit),60.00
28,*CC(*)OCCOCCOCCOC (repeat unit),-76.00
29,*Oc1ccc(C(C)(C)c2ccc(OC(*)=O)c(C)c2)cc1C (repeat unit),124.00

# The remaining lines, values ahead:
row,glass transition temperature [°C],SMILES
1,140.00,*CCOC(=O)NC1CCC(CC2CCC(NC(=O)OCCOc3ccc(C4(c5ccc(O*)cc5)c5ccccc5-c5ccccc54)cc3)CC2)CC1 (repeat unit)
2,215.00,*Nc1cccc(C(=O)c2ccc(NC(=O)c3cccc(C(=O)c4ccc(C(*)=O)cc4)c3)cc2)c1 (repeat unit)
3,282.00,*CCCCCCNC(=O)c1c(Cl)c(Cl)c(C(=O)N*)c(Cl)c1Cl (repeat unit)
4,30.00,*Oc1ccc(C(=O)OCCOCCOCCOC(=O)c2ccc(OC(=O)c3ccc(C(*)=O)cc3)cc2)cc1 (repeat unit)
5,-46.50,*C(=O)CCCCCCCCC(=O)NC1CCCCN(*)C1 (repeat unit)
6,132.00,*CCCCCCCCCCC(=O)Nc1ccc(Oc2ccc(NC(=O)CCCCCCCCCCN3C(=O)c4ccc(C(=O)c5ccc6c(c5)C(=O)N(*)C6=O)cc4C3=O)cc2)cc1 (repeat unit)
7,-36.00,*/C=C/CCCCCCCCCC(CCCCCCCCC*)COCCOCCOCCOCCOCc1ccc2ccc3cccc4ccc1c2c34 (repeat unit)
8,55.40,*CCC1C(=O)N(CCCCCCCCCCCC)C(=O)C1* (repeat unit)
9,34.00,*CCCCCCCCCCCCCCCCOC(=O)NCCCCCCCCCCNC(=O)O* (repeat unit)
10,199.50,*Nc1ccc(NC(=O)c2ccc(NC(=O)CCCCCCCCCCC(=O)Nc3ccc(C(*)=O)cc3)cc2)cc1C(=O)OCCCCCCCCCCCCCC (repeat unit)
11,19.00,*CC(*)(C)C(=O)Oc1ccc(/N=N/c2ccc(OCCCCCCCCCCCOC(=O)c3ccc4c(c3)OCCOCCOCCOCCO4)cc2)cc1 (repeat unit)
12,58.00,*CC(*)(C)C(=O)OCCCCCCCCCCn1c2ccccc2c2cc(/C=C(\C#N)C(=O)OC)ccc21 (repeat unit)
13,50.00,*Oc1ccc(OC(C)COCCCCCCCOc2ccc(-c3ccc(C(*)=O)cc3)cc2)c([N+](=O)[O-])c1 (repeat unit)
14,159.00,*Oc1cccc(OC(=O)c2ccc(Oc3ccc(C(*)=O)cc3)cc2)c1 (repeat unit)
15,25.00,*CCCCC(c1ccc(O)cc1)C(*)c1ccc(O)cc1C (repeat unit)
16,71.00 ± 10,"*c1ccc2c(c1)C(CCCCCCCC)(CCCCCCCC)c1cc(*)ccc1-2 (repeat unit) [poly(9,9-dioctylfluorene)]"
17,75.00,*CCCCCCCCCCCCNC(=O)c1ccc(C(=O)N*)c(Oc2ccccc2)c1 (repeat unit)
18,102.00,*OC(=O)C(NC(=O)CCCCC(=O)NC(C(=O)OC1COC2C(*)COC12)C(C)CC)C(C)CC (repeat unit)
